Assays:
Test in all cases: relative viability (nuclei count vs DMSO), 5 days (fraction); higher = more cells survive
[1] = compound: CC1=C(C=C(C=C1)NC(=O)C2=CC(=CC=C2)C(C)(C)C#N)NC3=CC4=C(C=C3)N=CN(C4=O)C [AZ628] + Cc1nc(NC(=O)N2CCC[C@H]2C(N)=O)sc1-c1ccnc(C(C)(C)C(F)(F)F)c1 [Alpelisib] (partner 2 µM)
How it was run: (§1)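 Lung cancer cell lines, seeded in 1536-well plates, were treated the following day by pin tool with a single drug or with five library-drug doses (not always all listed) in √10 steps on top of a fixed anchor-drug dose. Cells were fixed and nuclei stained in one step after 5 days, and nuclei were counted. Relative viability is the nuclei count for treated wells divided by that for vehicle wells, reported as medians of duplicate plates.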

[2] = compound: C[As](C)SC[C@H](NC(=O)CC[C@H](N)C(=O)O)C(=O)NCC(=O)O [Darinaparsin] + Cc1nc(Nc2ncc(C(=O)Nc3c(C)cccc3Cl)s2)cc(N2CCN(CCO)CC2)n1 [Dasatinib] (partner 0.075 µM)
How it was run: as §1

[3] = compound: CC1=C(C=C(C=C1)NC(=O)C2=CC(=CC=C2)C(C)(C)C#N)NC3=CC4=C(C=C3)N=CN(C4=O)C [AZ628] + O=C(CCCCCCC(=O)Nc1ccccc1)NO [Vorinostat] (partner 1 µM)
How it was run: as §1

[4] = compound: C[As](C)SC[C@H](NC(=O)CC[C@H](N)C(=O)O)C(=O)NCC(=O)O [Darinaparsin] + Cc1cc(Nc2cc(N3CCN(C)CC3)nc(Sc3ccc(NC(=O)C4CC4)cc3)n2)n[nH]1 [Tozasertib] (partner 0.1 µM)
How it was run: as §1

| Cell Line | relative viability ([1]; first compound 0.08 µM) | relative viability ([1]; first compound 0.253 µM) | relative viability ([1]; first compound 0.8 µM) | relative viability ([1]; first compound 2.53 µM) | relative viability ([1]; first compound 8 µM) | relative viability ([2]; first compound 0.08 µM) | relative viability ([2]; first compound 0.8 µM) | relative viability ([2]; first compound 2.53 µM) | relative viability ([2]; first compound 8 µM) | relative viability ([3]; first compound 0.08 µM) | relative viability ([3]; first compound 0.253 µM) | relative viability ([3]; first compound 0.8 µM) | relative viability ([3]; first compound 2.53 µM) | relative viability ([3]; first compound 8 µM) | relative viability ([4]; first compound 0.08 µM) | relative viability ([4]; first compound 0.8 µM) | relative viability ([4]; first compound 2.53 µM) | relative viability ([4]; first compound 8 µM) |
| --- | --- | --- | --- | --- | --- | --- | --- | --- | --- | --- | --- | --- | --- | --- | --- | --- | --- | --- |
| NCI-H23 | 0.745 | 0.622 | 0.305 | 0.501 | 0.377 | 0.909 | 0.836 | 0.714 | 0.843 | 0.709 | 0.555 | 0.524 | 0.404 | 0.333 | 0.372 | 0.333 | 0.348 | 0.754 |
| NCI-H322M | 0.925 | 0.719 | 0.824 | 0.747 | 0.655 | 0.269 | 0.233 | 0.251 | 0.257 | 1.03 | 0.856 | 0.989 | 0.937 | 0.816 | 0.564 | 0.464 | 0.423 | 0.492 |
| NCI-H358 | 0.745 | 0.639 | 0.668 | 0.571 | 0.389 | 0.135 | 0.157 | 0.17 | 0.162 | 0.762 | 0.424 | 0.386 | 0.336 | 0.262 | 0.1 | 0.102 | 0.124 | 0.101 |
| NCI-H441 | 0.781 | 0.769 | 0.814 | 0.637 | 0.802 | 0.6 | 0.581 | 0.558 | 0.737 | 0.782 | 0.749 | 0.67 | 0.673 | 0.68 | 0.839 | 0.673 | 0.72 | 0.539 |
| NCI-H522 | – | – | – | – | – | 0.853 | 0.902 | 0.804 | 0.918 | 0.924 | 0.891 | 0.95 | 0.82 | 0.695 | 0.508 | 0.602 | 0.534 | 0.599 |
| NCI-H1299 | 1.01 | 1.22 | 1.22 | 1.24 | 0.763 | – | – | – | – | – | – | – | – | – | – | – | – | – |
| NCI-H1563 | 0.982 | 0.874 | 0.858 | 0.967 | 0.893 | 0.379 | 0.442 | 0.5 | 0.479 | – | – | – | – | – | – | – | – | – |
| NCI-H1623 | – | – | – | – | – | 0.574 | 0.548 | 0.518 | 0.553 | – | – | – | – | – | 0.467 | 0.404 | 0.416 | 0.399 |
| NCI-H1648 | – | – | – | – | – | – | – | – | – | 0.544 | 0.372 | 0.333 | 0.375 | 0.323 | 0.346 | 0.53 | – | 0.474 |
| NCI-H1650 | – | – | – | – | – | 0.397 | 0.36 | 0.343 | 0.297 | 0.733 | 0.763 | 0.582 | 0.505 | 0.562 | 0.473 | 0.325 | 0.417 | 0.394 |
| NCI-H1703 | 0.216 | 0.2 | 0.215 | 0.213 | 0.181 | – | – | – | – | – | – | – | – | – | – | – | – | – |
| NCI-H1792 | 0.788 | 0.679 | 0.522 | 0.607 | 0.425 | 1.28 | 0.849 | 0.804 | 0.957 | – | – | – | – | – | – | – | – | – |
| NCI-H2342 | – | – | – | – | – | 0.358 | 0.302 | 0.296 | 0.312 | 0.928 | 0.692 | 0.81 | 0.753 | 0.825 | 0.545 | 0.443 | 0.53 | 0.44 |
| SW 900 | – | – | – | – | – | 0.512 | 0.454 | 0.654 | 0.514 | 0.622 | 0.463 | 0.573 | 0.426 | 0.534 | 0.677 | 0.538 | 0.658 | 0.555 |

Reference: the supplement of paper PMC10307832
